From ChEMBL document CHEMBL1201862, “PubChem BioAssay data set” (2004)
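Five concentrations, 48 hours, 96-well plates. GI50 = concentration required for 50% inhibition of growth.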 Calls of active or inactive are those of the source. No stated cut-off is given here; in the data, active = GI50 up to about 1.1 µM and inactive = higher.

Assays:
Assay in all cases: DTP human tumour cell line panel, 48 h
K562 = test system: K562
ACHN = test system: ACHN
NCI-H522 = test system: NCI-H522
OVCAR-8 = test system: OVCAR-8
U-251 = test system: U-251
UACC-62 = test system: UACC-62
CCRF-CEM = test system: CCRF-CEM
CAKI-1 = test system: CAKI-1
A498 = test system: A498
Malme-3M = test system: Malme-3M
RPMI-8226 = test system: RPMI-8226
TK-10 = test system: TK-10
SNB-19 = test system: SNB-19
LOX IMVI = test system: LOX IMVI
EKVX = test system: EKVX
RXF 393 = test system: RXF 393

Measured: GI50

CN(C)CC[N+]1=Nc2cccc3cccc(c23)N1
inactive: K562 26.4 µM | ACHN 28.1 µM | NCI-H522 33.7 µM | OVCAR-8 43.6 µM | U-251 > 68.5 µM | UACC-62 99.8 µM | CCRF-CEM 27.8 µM | CAKI-1 31 µM | A498 44.6 µM | Malme-3M > 100 µM | RPMI-8226 35.1 µM | TK-10 > 100 µM | SNB-19 > 49.5 µM | LOX IMVI 24.1 µM | EKVX > 84.7 µM

Nc1ccc(C(=O)NN2C(=O)C(Cl)C2c2cccc(O)c2)cc1 (stereo not given)
inactive: K562 10.8 µM | ACHN 17.5 µM | NCI-H522 1.75 µM | OVCAR-8 19.9 µM | U-251 12.5 µM | UACC-62 14.8 µM | CCRF-CEM 5.55 µM | CAKI-1 20.4 µM | A498 35.2 µM | Malme-3M 20.3 µM | RPMI-8226 14.7 µM | TK-10 16.7 µM | SNB-19 16.9 µM | LOX IMVI 3.85 µM | EKVX 21.5 µM

CCOC(=O)/C(C#N)=C\Sc1ccccc1
inactive: K562 18.3 µM | ACHN 17.1 µM | NCI-H522 3.21 µM | OVCAR-8 13.7 µM | U-251 11.3 µM | UACC-62 16.1 µM | CCRF-CEM 7.83 µM | CAKI-1 22.3 µM | RXF 393 16.8 µM | RPMI-8226 13.7 µM | TK-10 32.4 µM | SNB-19 33.5 µM | LOX IMVI 7.46 µM | EKVX 27.2 µM

COc1ccc2c(c1)[n+]([O-])c(-c1ccc(OC)c(OC)c1)c(N)[n+]2[O-]
inactive: K562 72.1 µM | ACHN 51.3 µM | NCI-H522 15.9 µM | OVCAR-8 > 100 µM | U-251 68.7 µM | UACC-62 31.1 µM | CCRF-CEM 84.1 µM | CAKI-1 32.1 µM | A498 > 100 µM | Malme-3M 46.3 µM | RPMI-8226 > 100 µM | TK-10 > 100 µM | SNB-19 83.2 µM | LOX IMVI > 100 µM | EKVX > 100 µM

CC(=O)NS(=O)(=O)c1ccc(NC(=O)COC(=O)c2cccc3c(=O)c4ccccc4[nH]c23)cc1
inactive: K562 > 100 µM | ACHN > 100 µM | NCI-H522 > 100 µM | OVCAR-8 > 100 µM | U-251 > 100 µM | UACC-62 > 100 µM | CCRF-CEM > 100 µM | RXF 393 > 100 µM | Malme-3M > 100 µM | RPMI-8226 > 100 µM | TK-10 > 100 µM | SNB-19 > 100 µM | LOX IMVI > 100 µM | EKVX > 100 µM

NC(=O)C12C3C4C1C1C2C3C41C(N)=O (stereo not given)
inactive: K562 > 100 µM | ACHN > 100 µM | NCI-H522 > 100 µM | OVCAR-8 > 100 µM | U-251 > 100 µM | UACC-62 > 100 µM | CCRF-CEM > 100 µM | CAKI-1 > 100 µM | RXF 393 > 100 µM | A498 > 100 µM | RPMI-8226 > 100 µM | TK-10 > 100 µM | SNB-19 > 100 µM | LOX IMVI > 100 µM | EKVX > 100 µM

C[Si](C)(C)/C=C\CCCN1C(=O)CCC1=O
inactive: K562 60 µM | ACHN > 100 µM | NCI-H522 > 100 µM | OVCAR-8 > 100 µM | U-251 > 100 µM | UACC-62 > 100 µM | CCRF-CEM 64.7 µM | A498 > 100 µM | Malme-3M > 100 µM | RPMI-8226 > 100 µM | TK-10 > 100 µM | SNB-19 > 100 µM | LOX IMVI > 100 µM | EKVX > 100 µM

Cc1cc(O)nc(NNC(C#N)c2ccc(N(C)C)cc2)n1 (stereo not given)
inactive: K562 > 100 µM | ACHN > 100 µM | NCI-H522 > 100 µM | OVCAR-8 > 100 µM | U-251 > 100 µM | UACC-62 > 100 µM | CCRF-CEM > 100 µM | CAKI-1 > 100 µM | RXF 393 > 100 µM | Malme-3M > 100 µM | RPMI-8226 > 100 µM | TK-10 > 100 µM | LOX IMVI > 100 µM

CC1CC(=O)C(CC(=O)O)C1C(C(=O)C(=O)Nc1c(C#N)cccc1[N+](=O)[O-])[N+](=O)[O-] (stereo not given)
inactive: K562 > 100 µM | ACHN > 100 µM | OVCAR-8 > 100 µM | U-251 > 100 µM | UACC-62 > 100 µM | CCRF-CEM > 100 µM | CAKI-1 > 100 µM | RXF 393 > 100 µM | A498 > 100 µM | Malme-3M > 100 µM | RPMI-8226 > 100 µM | TK-10 > 100 µM | SNB-19 > 100 µM | LOX IMVI > 100 µM | EKVX > 100 µM

NC1C[C@H](n2cc(/C=C/Br)c(=O)[nH]c2=O)C[C@@H]1CO (stereo not given in full)
inactive: K562 > 100 µM | ACHN > 100 µM | NCI-H522 > 100 µM | OVCAR-8 > 100 µM | U-251 > 100 µM | UACC-62 > 100 µM | CCRF-CEM > 100 µM | RXF 393 > 100 µM | A498 > 100 µM | RPMI-8226 > 100 µM | TK-10 > 100 µM | SNB-19 > 100 µM | LOX IMVI > 100 µM | EKVX > 100 µM

CCCCNc1nc(C#N)c(N)s1
inactive: K562 > 100 µM | ACHN > 100 µM | NCI-H522 > 100 µM | OVCAR-8 > 100 µM | U-251 > 100 µM | UACC-62 > 100 µM | CAKI-1 > 100 µM | Malme-3M > 100 µM | RPMI-8226 > 100 µM | TK-10 > 100 µM | SNB-19 > 100 µM | LOX IMVI > 100 µM

COC(=O)C1=C(C(=O)OC)C23C=CC=CC24C(C(=O)OC)=C(C(=O)OC)C4C1C3 (stereo not given)
inactive: K562 30.5 µM | ACHN > 100 µM | NCI-H522 32.7 µM | OVCAR-8 > 100 µM | U-251 > 100 µM | UACC-62 56.6 µM | CCRF-CEM 69.7 µM | RXF 393 > 100 µM | Malme-3M > 100 µM | RPMI-8226 51.2 µM | TK-10 > 100 µM | SNB-19 > 100 µM | EKVX > 100 µM

COc1cc(/C=C2\[C@H]3c4c(c(OC)c(C)c(OC)c4OC)C[C@@H](C(=O)N2Cc2ccccc2)N3C(=O)OC(C)C)c(OC)c(C)c1OC
inactive: K562 40 µM | ACHN > 100 µM | NCI-H522 27.5 µM | OVCAR-8 > 100 µM | U-251 53.1 µM | UACC-62 92.9 µM | CCRF-CEM 54 µM | RXF 393 > 100 µM | A498 > 100 µM | Malme-3M 60.1 µM | RPMI-8226 27.2 µM | TK-10 79.3 µM | LOX IMVI > 100 µM | EKVX 52.5 µM

Cc1cc2c(c(C(=O)O)c1C)-c1cccc(F)c1C2=O
inactive: K562 > 100 µM | ACHN > 100 µM | NCI-H522 > 100 µM | OVCAR-8 > 100 µM | U-251 > 100 µM | UACC-62 > 100 µM | CCRF-CEM > 100 µM | CAKI-1 > 100 µM | RXF 393 66.7 µM | Malme-3M > 100 µM | RPMI-8226 > 100 µM | TK-10 > 100 µM | SNB-19 67.8 µM | LOX IMVI > 100 µM | EKVX > 100 µM

C1CC[N+]23CCCC[N+]2(C1)CCCC3 (stereo not given)
inactive: K562 > 100 µM | ACHN > 100 µM | NCI-H522 > 100 µM | OVCAR-8 > 100 µM | U-251 > 100 µM | UACC-62 > 100 µM | CCRF-CEM > 100 µM | CAKI-1 > 100 µM | A498 > 100 µM | Malme-3M > 100 µM | RPMI-8226 > 100 µM | TK-10 > 100 µM | SNB-19 > 100 µM | EKVX > 100 µM

O=C(CC1(O)C(=O)Nc2ccc([N+](=O)[O-])cc21)c1ccncc1 (stereo not given)
inactive: K562 20.5 µM | ACHN 43.3 µM | NCI-H522 29.8 µM | OVCAR-8 46.2 µM | U-251 20.1 µM | UACC-62 29.2 µM | CCRF-CEM 29 µM | RXF 393 14.8 µM | A498 > 100 µM | Malme-3M 21.8 µM | RPMI-8226 25.2 µM | TK-10 > 100 µM | SNB-19 54.3 µM | LOX IMVI 15.5 µM | EKVX > 100 µM

COC(=O)CCC(NC(=S)N/N=C(\C)c1ccco1)C(=O)OC (stereo not given)
inactive: K562 > 100 µM | ACHN > 100 µM | NCI-H522 > 100 µM | OVCAR-8 > 100 µM | U-251 > 100 µM | UACC-62 > 100 µM | CCRF-CEM > 100 µM | RXF 393 > 100 µM | A498 > 100 µM | Malme-3M > 100 µM | TK-10 > 100 µM | SNB-19 > 100 µM | LOX IMVI > 100 µM | EKVX > 100 µM

Cc1nc2ccccc2c(=O)n1/N=C(\N=N\c1ccc(Cl)cc1)c1cccc(-c2ccco2)c1
inactive: K562 22.3 µM | ACHN 30.5 µM | NCI-H522 17.7 µM | OVCAR-8 33.1 µM | U-251 27.5 µM | UACC-62 22.4 µM | CCRF-CEM 24.6 µM | CAKI-1 25.5 µM | RXF 393 20.3 µM | A498 61.8 µM | RPMI-8226 19.1 µM | TK-10 51.5 µM | LOX IMVI 28.9 µM | EKVX 51.8 µM

CN(CCO)c1nc2c(c(=O)[nH]1)CNCC2
inactive: K562 > 100 µM | ACHN > 100 µM | NCI-H522 > 100 µM | OVCAR-8 > 100 µM | U-251 > 100 µM | UACC-62 > 100 µM | CCRF-CEM > 100 µM | CAKI-1 > 100 µM | RXF 393 > 100 µM | Malme-3M > 100 µM | RPMI-8226 > 100 µM | TK-10 > 100 µM | SNB-19 > 100 µM | LOX IMVI > 100 µM | EKVX > 100 µM
